Assays:
[1] = target: T1, Sodium channel protein type 9 subunit alpha (Homo sapiens, UniProt Q15858); assay: Inhibition of human NaV1.7 channel expressed in HEK293 cells treated for 120 secs by QPatch assay; type: cell-based
Mus musculus = assay: Toxicity in mouse administered 15 to 20 mins; type: organism-based; settings: in vivo
[2] = target: Sodium channel protein type 4 subunit alpha (Mus musculus, UniProt Q9ER60); assay: Inhibition of mouse NaV1.4 channel by two-electrode voltage-clamp method
[3] = target: Sodium channel protein type 8 subunit alpha (Mus musculus, UniProt Q9WTU3); assay: Inhibition of mouse NaV1.6 channel by two-electrode voltage-clamp method
[4] = target: Sodium channel protein type 9 subunit alpha (Rattus norvegicus, UniProt O08562); assay: Inhibition of rat NaV1.7 channel by two-electrode voltage-clamp method
[5] = target: Sodium channel protein type 1 subunit alpha (Mus musculus, UniProt A2APX8); assay: Inhibition of mouse NaV1.1 channel by two-electrode voltage-clamp method
[6] = Inhibition of mouse NaV1.2 channel by two-electrode voltage-clamp method
[7] = target: Sodium channel protein type 3 subunit alpha (Rattus norvegicus, UniProt P08104); assay: Inhibition of rat NaV1.3 channel
[8] = target: NaV1.5 (sodium channel protein type 5 subunit alpha) (Rattus norvegicus, UniProt P15389); assay: Inhibition of rat NaV1.5 channel at 1 uM relative to control
[9] = target: Sodium channel protein type 2 subunit alpha (Rattus norvegicus, UniProt P04775); assay: Inhibition of rat NaV1.2 channel
[10] = target: Sodium channel protein type 4 subunit alpha (Rattus norvegicus) (UniProt P15390); assay: Inhibition of rat NaV1.4 channel at 1 uM relative to control
[11] = target: T1, Sodium channel protein type 9 subunit alpha; assay: Inhibition of human NaV1.7 channel by patch clamp electrophysiology assay
[12] = target: Sodium channel protein type 5 subunit alpha (Homo sapiens, UniProt Q14524); assay: Inhibition of human NaV1.5 channel expressed in HEK293 cells by patch clamp electrophysiology assay; type: cell-based
Sodium channel protein type 5 subunit alpha, sequence (Q14524 whole entry): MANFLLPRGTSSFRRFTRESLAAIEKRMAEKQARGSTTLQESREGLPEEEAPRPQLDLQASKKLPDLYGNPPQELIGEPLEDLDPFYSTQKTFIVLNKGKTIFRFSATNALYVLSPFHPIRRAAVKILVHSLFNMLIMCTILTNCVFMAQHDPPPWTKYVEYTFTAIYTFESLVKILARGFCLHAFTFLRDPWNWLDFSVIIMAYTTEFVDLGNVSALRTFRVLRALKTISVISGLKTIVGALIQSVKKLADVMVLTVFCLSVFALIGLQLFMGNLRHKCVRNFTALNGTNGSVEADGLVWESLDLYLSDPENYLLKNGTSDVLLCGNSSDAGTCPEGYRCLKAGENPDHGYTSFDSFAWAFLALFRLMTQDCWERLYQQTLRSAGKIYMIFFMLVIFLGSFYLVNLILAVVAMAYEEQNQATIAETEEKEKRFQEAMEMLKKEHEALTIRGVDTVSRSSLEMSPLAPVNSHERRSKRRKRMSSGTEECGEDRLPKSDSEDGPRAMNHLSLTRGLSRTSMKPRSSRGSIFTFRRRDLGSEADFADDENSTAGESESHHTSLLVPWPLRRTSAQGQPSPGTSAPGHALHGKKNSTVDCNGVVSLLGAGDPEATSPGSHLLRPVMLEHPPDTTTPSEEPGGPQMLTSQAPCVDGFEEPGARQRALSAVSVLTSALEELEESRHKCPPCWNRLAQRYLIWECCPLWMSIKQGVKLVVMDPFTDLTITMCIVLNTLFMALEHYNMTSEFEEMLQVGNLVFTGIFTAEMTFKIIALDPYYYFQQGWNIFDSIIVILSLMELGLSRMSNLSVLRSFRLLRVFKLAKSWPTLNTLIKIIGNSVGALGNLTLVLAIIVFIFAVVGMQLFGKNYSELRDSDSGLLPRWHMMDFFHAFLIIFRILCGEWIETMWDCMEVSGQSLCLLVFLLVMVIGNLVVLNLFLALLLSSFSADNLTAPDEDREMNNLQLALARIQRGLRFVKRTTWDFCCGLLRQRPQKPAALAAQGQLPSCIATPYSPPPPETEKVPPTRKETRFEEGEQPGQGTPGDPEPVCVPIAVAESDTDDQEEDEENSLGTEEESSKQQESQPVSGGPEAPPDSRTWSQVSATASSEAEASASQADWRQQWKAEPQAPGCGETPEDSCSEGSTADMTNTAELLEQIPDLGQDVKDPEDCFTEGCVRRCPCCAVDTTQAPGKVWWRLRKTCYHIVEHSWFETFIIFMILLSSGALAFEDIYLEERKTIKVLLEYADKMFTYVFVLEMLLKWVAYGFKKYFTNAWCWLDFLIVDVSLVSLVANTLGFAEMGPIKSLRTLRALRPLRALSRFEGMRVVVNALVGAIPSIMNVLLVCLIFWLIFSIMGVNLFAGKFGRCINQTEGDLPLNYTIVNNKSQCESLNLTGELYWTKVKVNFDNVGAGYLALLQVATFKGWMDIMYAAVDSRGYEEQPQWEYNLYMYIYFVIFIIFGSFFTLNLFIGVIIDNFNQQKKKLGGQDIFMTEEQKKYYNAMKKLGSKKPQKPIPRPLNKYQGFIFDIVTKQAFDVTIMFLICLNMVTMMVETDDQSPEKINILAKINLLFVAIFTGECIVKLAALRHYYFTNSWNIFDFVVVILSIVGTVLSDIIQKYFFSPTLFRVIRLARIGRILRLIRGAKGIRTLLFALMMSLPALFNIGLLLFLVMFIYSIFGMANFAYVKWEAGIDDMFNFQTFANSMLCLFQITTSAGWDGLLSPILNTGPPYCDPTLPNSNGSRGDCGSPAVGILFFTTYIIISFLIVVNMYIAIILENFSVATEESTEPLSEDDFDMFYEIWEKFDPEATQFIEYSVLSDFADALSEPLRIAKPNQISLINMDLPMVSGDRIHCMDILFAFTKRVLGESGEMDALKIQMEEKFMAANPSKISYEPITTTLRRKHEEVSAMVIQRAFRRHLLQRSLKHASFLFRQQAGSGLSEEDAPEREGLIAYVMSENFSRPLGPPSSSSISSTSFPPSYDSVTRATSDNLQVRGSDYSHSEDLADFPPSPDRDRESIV

[13] = target: T1, Sodium channel protein type 9 subunit alpha; assay: Inhibition of human NaV1.7 channel expressed in HEK293 cells by patch clamp electrophysiology assay; type: cell-based
[14] = Selectivity ratio of IC50 for rat NaV1.3 channel expressed in Xenopus laevis oocytes to IC50 for mouse NaV1.6 channel expressed in Xenopus laevis oocytes; type: cell-based
[15] = Selectivity ratio of IC50 for rat NaV1.2 channel expressed in Xenopus laevis oocytes to IC50 for mouse NaV1.6 channel expressed in Xenopus laevis oocytes; type: cell-based
[16] = Selectivity ratio of IC50 for human NaV1.7 channel expressed in Xenopus laevis oocytes to IC50 for mouse NaV1.6 channel expressed in Xenopus laevis oocytes; type: cell-based
[17] = Selectivity ratio of IC50 for rat NaV1.4 channel expressed in Xenopus laevis oocytes to IC50 for mouse NaV1.6 channel expressed in Xenopus laevis oocytes; type: cell-based
[18] = target: Sodium channel protein type 8 subunit alpha (Homo sapiens, UniProt Q9UQD0); assay: Inhibition of human NaV1.6 channel by patch clamp electrophysiology assay
[19] = target: Sodium channel protein type 4 subunit alpha (Homo sapiens, UniProt P35499); assay: Inhibition of human NaV1.4 channel by patch clamp electrophysiology assay
[20] = target: Sodium channel protein type 3 subunit alpha (Homo sapiens, UniProt Q9NY46); assay: Inhibition of human TTX-sensitive NaV1.3 channel expressed in HEK293 cells by patch clamp electrophysiology assay; type: cell-based
[21] = target: Sodium channel protein type 10 subunit alpha (Homo sapiens, UniProt Q9Y5Y9); assay: Inhibition of human NaV1.8 channel by patch clamp electrophysiology assay
[22] = target: Sodium channel protein type 2 subunit alpha (Homo sapiens, UniProt Q99250); assay: Inhibition of human NaV1.2 channel by patch clamp electrophysiology assay
[23] = target: Sodium channel protein type 1 subunit alpha (Homo sapiens, UniProt P35498); assay: Inhibition of human NaV1.1 channel by patch clamp electrophysiology assay
[24] = Toxicity in mouse; type: organism-based; settings: in vivo
[25] = target: T1, Sodium channel protein type 9 subunit alpha; assay: Inhibition of human NaV1.7 channel expressed in HEK cells by patch clamp electrophysiology assay; type: cell-based, HEK293

T1 sequence (Q15858 whole entry): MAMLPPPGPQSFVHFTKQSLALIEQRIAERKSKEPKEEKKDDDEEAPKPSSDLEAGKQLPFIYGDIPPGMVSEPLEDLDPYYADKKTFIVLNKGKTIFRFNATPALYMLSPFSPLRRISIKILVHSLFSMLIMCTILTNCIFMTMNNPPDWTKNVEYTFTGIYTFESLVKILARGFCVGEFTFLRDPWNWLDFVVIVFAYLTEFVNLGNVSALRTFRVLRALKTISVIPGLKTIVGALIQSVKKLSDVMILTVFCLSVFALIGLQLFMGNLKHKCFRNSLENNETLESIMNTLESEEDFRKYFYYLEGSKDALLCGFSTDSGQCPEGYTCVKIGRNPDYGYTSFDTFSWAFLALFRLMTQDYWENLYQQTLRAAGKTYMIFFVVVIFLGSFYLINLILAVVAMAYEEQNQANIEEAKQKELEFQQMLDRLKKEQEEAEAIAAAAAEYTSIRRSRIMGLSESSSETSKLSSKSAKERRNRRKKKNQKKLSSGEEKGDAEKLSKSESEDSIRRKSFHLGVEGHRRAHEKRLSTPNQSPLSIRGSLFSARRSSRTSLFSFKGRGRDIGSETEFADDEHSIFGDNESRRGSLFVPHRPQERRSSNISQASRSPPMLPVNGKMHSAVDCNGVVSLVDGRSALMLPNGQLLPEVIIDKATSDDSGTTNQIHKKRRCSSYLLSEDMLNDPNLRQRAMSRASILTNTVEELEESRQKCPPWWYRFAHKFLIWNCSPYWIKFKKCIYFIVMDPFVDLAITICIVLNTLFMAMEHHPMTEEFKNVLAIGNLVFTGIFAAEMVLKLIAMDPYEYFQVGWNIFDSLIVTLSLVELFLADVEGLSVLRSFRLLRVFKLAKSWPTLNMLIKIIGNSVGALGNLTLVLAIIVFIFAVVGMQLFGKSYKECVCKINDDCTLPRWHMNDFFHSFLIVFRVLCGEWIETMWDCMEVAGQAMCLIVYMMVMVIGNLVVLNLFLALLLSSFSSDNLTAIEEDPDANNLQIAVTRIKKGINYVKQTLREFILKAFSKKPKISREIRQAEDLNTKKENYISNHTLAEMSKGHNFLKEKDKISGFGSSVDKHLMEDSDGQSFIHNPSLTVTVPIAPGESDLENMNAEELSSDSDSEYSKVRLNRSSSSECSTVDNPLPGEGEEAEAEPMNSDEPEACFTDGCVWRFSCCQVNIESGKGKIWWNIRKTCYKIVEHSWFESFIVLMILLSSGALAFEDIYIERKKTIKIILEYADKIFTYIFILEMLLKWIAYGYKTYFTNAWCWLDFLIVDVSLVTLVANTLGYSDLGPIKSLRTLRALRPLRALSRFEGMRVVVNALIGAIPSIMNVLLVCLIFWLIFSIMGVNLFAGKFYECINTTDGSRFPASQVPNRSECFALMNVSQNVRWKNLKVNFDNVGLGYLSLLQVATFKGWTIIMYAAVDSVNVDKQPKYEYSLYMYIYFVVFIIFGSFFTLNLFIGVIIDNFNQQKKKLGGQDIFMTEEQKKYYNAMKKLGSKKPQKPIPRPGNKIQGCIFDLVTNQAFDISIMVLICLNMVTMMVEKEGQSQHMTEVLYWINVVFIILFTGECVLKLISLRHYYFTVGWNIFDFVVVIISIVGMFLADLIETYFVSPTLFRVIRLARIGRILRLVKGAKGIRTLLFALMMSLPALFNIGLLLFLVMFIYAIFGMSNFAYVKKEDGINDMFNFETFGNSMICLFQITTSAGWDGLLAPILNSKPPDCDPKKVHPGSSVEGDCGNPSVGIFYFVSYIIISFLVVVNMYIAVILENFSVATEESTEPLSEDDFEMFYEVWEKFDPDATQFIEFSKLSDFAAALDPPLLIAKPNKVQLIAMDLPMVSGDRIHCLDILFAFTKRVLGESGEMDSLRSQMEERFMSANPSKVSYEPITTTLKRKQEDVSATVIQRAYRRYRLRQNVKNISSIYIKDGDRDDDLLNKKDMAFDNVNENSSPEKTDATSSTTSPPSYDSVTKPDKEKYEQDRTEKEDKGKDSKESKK

Question: For Cc1ccc(OCC(C)C)c(-c2cccc([C@@H]3CC[C@]4(CCN(C)C4=O)N3)c2F)c1, which IC50 [1] is on record?
Answer: The IC50 was 251 nM.

Question: With CC1=CN=C(C)C1C(=O)O[C@@H](C)C1=CC[C@@]23OCCN(C)C[C@@]12C[C@@H](O)[C@]12O[C@@]4(O)CC[C@@]1(C)[C@H](CC=C32)C4 (stereo partly specified) as the molecule, how does the LD50 (Mus musculus) read?
Answer: The LD50 was 0.002 mg/kg.

Question: With N=C(N)NCCC[C@@H]1NC(=O)[C@H](CO)NC(=O)[C@H](Cc2cnc[nH]2)NC(=O)[C@H](CC(=O)O)NC(=O)[C@H](CCCNC(=N)N)NC(=O)[C@@H]2CSSC[C@H](N)C(=O)N[C@H]3CSSC[C@H](NC1=O)C(=O)N[C@H](C(=O)O)CSSC[C@H](NC(=O)[C@H](CC(N)=O)NC3=O)C(=O)N[C@@H](CO)C(=O)N[C@@H](CO)C(=O)N[C@@H](CCCCN)C(=O)N[C@@H](Cc1c[nH]c3ccccc13)C(=O)N2 as the molecule, how does the IC50 [2] read?
Answer: The IC50 was 90 nM.

Question: What about the IC50 [3] of the same molecule?
Answer: The IC50 was 240 nM.

Question: And the Kd [4]?
Answer: The Kd was 290 nM.

Question: What about the Kd [5] of the same molecule?
Answer: The Kd was 290 nM.

Question: What about the Kd [6] of the same molecule?
Answer: Its Kd is 5 nM.

Question: With Cc1cc(-c2ccc(C(F)(F)F)cc2)nc([C@@H]2CC[C@]3(CCN(C)C3=O)N2)n1 as the molecule, how does the IC50 [1] read?
Answer: The IC50 was 2000 nM.

Question: For CN1CC[C@]2(CC[C@@H](c3cc(-c4cccc(OC(F)(F)F)c4)ccn3)N2)C1=O, which IC50 [1] is on record?
Answer: The IC50 was 251 nM.

Question: For CC[C@H](C)[C@H](NC(=O)[C@H](CCC(=O)O)NC(=O)[C@H](Cc1ccc(O)cc1)NC(=O)[C@H](CCCCN)NC(=O)[C@H](CS)NC(=O)[C@H](Cc1c[nH]c2ccccc12)NC(=O)[C@H](CCCNC(=N)N)NC(=O)[C@H](Cc1cnc[nH]1)NC(=O)[C@H](CCCCN)NC(=O)[C@H](CCCNC(=N)N)NC(=O)[C@H](CO)NC(=O)[C@H](CS)NC(=O)[C@@H](NC(=O)[C@H](CC(C)C)NC(=O)[C@H](CC(N)=O)NC(=O)[C@H](CO)NC(=O)[C@H](CO)NC(=O)[C@H](CCCCN)NC(=O)[C@H](CS)NC(=O)[C@H](CS)NC(=O)[C@H](CCC(N)=O)NC(=O)[C@H](CC(=O)O)NC(=O)[C@H](CC(N)=O)NC(=O)[C@H](CO)NC(=O)[C@@H]1CCCN1C(=O)[C@H](CC(N)=O)NC(=O)[C@H](CS)NC(=O)CNC(=O)[C@H](CCCCN)NC(=O)CNC(=O)[C@H](Cc1ccccc1)NC(=O)CNC(=O)[C@H](CC(C)C)NC(=O)[C@H](CS)NC(=O)[C@@H](N)CCC(=O)O)C(C)C)C(N)=O, which IC50 [7] is on record?
Answer: Its IC50 is 375 nM.

Question: And the inhibition at 1 µM [8]?
Answer: Its inhibition at 1 µM is 0%.

Question: What about the IC50 [9] of the same molecule?
Answer: Its IC50 is 36 nM.

Question: What about the inhibition [10] of the same molecule?
Answer: Its inhibition is 7.3%.

Question: And the IC50 [11]?
Answer: The IC50 was 21 nM.

Question: What does the source list for Nc1nc2cc(-c3cc(Cl)ccc3Oc3cc(F)c(S(=O)(=O)Nc4ncns4)cc3F)ccc2[nH]1?
Answer: IC50 [12]: > 10000 nM; IC50 [13]: 30 nM

Question: For O=S(=O)(Nc1ncns1)c1cc(F)c(OC[C@@H]2CNCC[C@H]2c2ccc(Cl)c(F)c2)cc1F, which IC50 [12] is on record?
Answer: The IC50 was > 10000 nM.

Question: With N=C1N[C@H]2OC3C4(N1)C2[C@H]1O[C@]3(O)OC([C@H]4O)[C@]1(O)CO as the molecule, how does the Ratio IC50 [14] read?
Answer: Its Ratio IC50 is 44.

Question: And the Ratio IC50 [15]?
Answer: The Ratio IC50 was 161.

Question: And the Ratio IC50 [16]?
Answer: Its Ratio IC50 is 163.

Question: And the Ratio IC50 [17]?
Answer: The Ratio IC50 was 127.

Question: For O=C(Nc1ccc(S(=O)(=O)Nc2nccs2)cc1)C(c1ccccc1)c1ccccc1, which IC50 [12] is on record?
Answer: Its IC50 is > 10000 nM.

Question: What about the IC50 [18] of the same molecule?
Answer: Its IC50 is > 10000 nM.

Question: And the IC50 [19]?
Answer: The IC50 was > 10000 nM.

Question: And the IC50 [20]?
Answer: The IC50 was < 20 nM.

Question: What about the IC50 [21] of the same molecule?
Answer: Its IC50 is > 10000 nM.

Question: And the IC50 [13]?
Answer: The IC50 was > 10000 nM.

Question: What about the IC50 [22] of the same molecule?
Answer: Its IC50 is 240 nM.

Question: And the IC50 [23]?
Answer: Its IC50 is < 20 nM.

Question: Which LD50 [24] does the source give for COc1ccc(C(=O)O[C@H]2CC[C@@]3(C)[C@@H]4CC[C@H]5[C@]6(O)C[C@H](O)[C@@]7(O)[C@@H](CN8C[C@@H](C)CC[C@H]8[C@@]7(C)O)[C@]6(O)C[C@@]53O[C@]24O)cc1OC [VERATRIDINE] here?
Answer: The LD50 was 9 mg/kg.

Question: With CCCOc1ncccc1-c1cc(C(=O)NS(C)(=O)=O)ccc1Oc1ccc(Cl)cc1 as the molecule, how does the IC50 [25] read?
Answer: Its IC50 is 14 nM.
